Data from publication PMC10870298, “Rational Design of Antifungal Peptides Based on the γ-Core Motif of a Neosartorya (Aspergillus) fischeri Antifungal Protein to Improve Structural Integrity, Efficacy, and Spectrum” (ACS Omega, 2024).
Read-outs that look alike come from different tables or passages of the source. Residues, ends and D or L forms follow the SMILES beside them. *: point of attachment. tBu = CC(C)(C)*

How the values were obtained:
[1] = tested on: C. albicans SC5314; assay: Cell-killing efficacy: growth kinetics of high-density culture and drop viability on YPD agar; format: cell-based, Candida albicans; conditions: for growth of high-density C. albicans culture: OD600 = 0.2 mid-log cells, LCM, 30 °C, 24 h; for proportion of cells able to multiply (culture drops on YPD agar after treatment): 24 h treatment at 30 °C, then 5 μL drops on YPD agar 24 h at 30 °C
Protocol: Compared with MIC determination, monitoring the growth kinetics of high-density cell cultures in the presence of various peptide concentrations allows for detailed insight into the cell-killing efficacy over time and how cysteine modifications influence it. Therefore, the growth of high-density C. albicans cell culture (OD600 = 0.2) was monitored in the presence of 0.5× MIC, 1× MIC, and 2× MIC of the NFAP γ-core peptides.
The experiment was conducted in a flat-bottom 96-well microtiter plate (TC Plate 96 Well, Suspension, F; Sarstedt, Nümbrecht, Germany): 100 μL of OD600 = 0.2 mid-log phase cells prepared in LCM were mixed with 100 μL of 1× MIC, 2× MIC, or 4× MIC of the peptide diluted in LCM. The plates were incubated statically at 30 °C for 24 h. The absorbance (OD600) of each well was then measured after shaking for 5 s every hour using a microtiter plate reader (BioTek Synergy HTX Multi-Mode Microplate Reader; Agilent Technologies, Santa Clara, CA, USA). Untreated cells (100 μL LCM mixed with 100 μL OD600 = 0.2 mid-log phase cells prepared in LCM) served as growth controls. To examine the viability of the treated C. albicans cells, 5–5 μL cultures from each well were dropped onto the YPD agar plate after the last OD600 measurement and allowed to dry before incubation at 30 °C for 24 h. The plates were photographed (Versa Doc Imaging System 4000 MP; Bio-Rad, Hercules, CA, USA). These experiments were repeated two times, involving three technical replicates.

[2] = Structural integrity (disulfide bridge formation on storage) by RP-HPLC; format: physicochemical
Protocol: The half volume of the dissolved lyophilized peptides was promptly stored at −20 °C for 7 days. The other half volume of these peptides was stored at 4 °C for 7 days (oxidative condition) and then at −20 °C until RP-HPLC and electronic circular dichroism (ECD) analyses were performed. Herein, these peptide samples are referred to as −20 and 4 °C samples, respectively.
(§1) The lyophilized and stored peptides were dissolved in sterile ddH2O (5 mg mL^–1). Then, half of the volume of the peptide stock was tested for antifungal activity and stored at −20 °C until RP-HPLC and ECD analyses. This peptide sample is termed the −20 °C sample. The other half volume of the stock was stored at 4 °C for 7 days, tested for antifungal activity, and stored at −20 °C until RP-HPLC and ECD analyses. This peptide sample is referred to as the 4 °C sample.
Crude peptides were purified by semipreparative RP-HPLC using a solvent system of (A) 0.1% TFA and (B) 80% acetonitrile, 0.1% TFA, and a linear gradient from 0 to 30% (B) in 60 min. Purification was performed on a Phenomenex Jupiter Proteo 90 Å column (250 × 10 mm) using a Shimadzu HPLC apparatus (Berlin, Germany). Absorbance was detected at 220 nm. Purity was evaluated by analytical RP-HPLC using a Phenomenex Luna 10 μ C18 100 A column and an Agilent 1100 HPLC instrument (Palo Alto, CA, USA).

[3] = tested on: C. albicans SC5314; format: cell-based, Candida albicans; conditions: SC5314, 48 h
Protocol: as §1
(§2) MICs of NFAP γ-core peptide derivatives were determined against C. albicans SC5314 and A. fumigatus CBS 101355. These fungi were maintained on yeast peptone dextrose agar (YPD: 10 g L^–1 yeast extract, 20 g L^–1 peptone, 20 g L^–1D-glucose, 15 g L^–1 agar) and malt extract agar (MEA, Sigma-Aldrich) slants at 4 °C, respectively. Susceptibility tests were performed in low cationic medium (LCM: 5 g L^–1D-glucose, 0.25 g L^–1 yeast extract, 0.125 g L^–1 peptone) according to Tóth et al. (2018)[16] and Tóth et al. (2020)[19] for yeasts and molds, respectively, with slight modifications. Briefly, 100 μL NFAP γ-core peptide (0.39–400 μg mL^–1 in two-fold serial dilutions in LCM) was mixed with 100 μL of 2 × 10^5 mL^–1 mid-log phase C. albicans cells or freshly harvested A. fumigatus conidia in LCM in a flat-bottom 96-well microtiter plate (TC Plate 96 Well, Suspension, F; Sarstedt, Nümbrecht, Germany). A mixture of 100 μL of medium (LCM) without NFAP γ-core peptide derivative and 100 μL of cell or conidium suspension served as the untreated growth control, whereas 200 μL of LCM was used for background calibration. The plates were incubated statically for 48 h (C. albicans) or 72 h (A. fumigatus) at 30 °C. The absorbance (OD620) of each well was measured after shaking for 5 s using a microtiter plate reader (SPECTROstar Nano; BMG Labtech, Ortenberg, Germany). The absorbance of the untreated control was taken as 100% growth for the MIC calculation. MIC was defined as the lowest peptide concentration that reduced fungal growth by […] compared with the untreated control. Susceptibility tests were performed in two technical replicates and were repeated at least two times.

[4] = tested on: sheep blood; conditions: cited from earlier work
Description: (§3) The clinical application of antimicrobial peptides is limited by their potential hemolytic activity, toxicity, immunogenicity, and other side effects.[27] […] Herein, we investigated how cysteine–serine substitution(s) and S-tert-butylation of these peptides influence hemolytic activ ...

[5] = tested on: human cell lines (monocytes, colonic epithelial cells, keratinocytes); conditions: cited from earlier work
Description: as §3

[6] = tested on: plant pathogenic filamentous fungi; conditions: previous studies; cited from earlier work
Description: Presumably, these peptides exert an antifungal mechanism through membrane disruption,[17] and the high positive net charge supports this mechanism. Additionally, neither hydrop ...

[7] = tested on: A. fumigatus CBS 101355; format: cell-based, Aspergillus fumigatus
Protocol: as §1, §2

[8] = 4 °C sample: 5 mg mL^–1 in sterile ddH2O stored at 4 °C for 7 days (oxidative condition)
[9] = 1 and 2× MIC, OD600 hourly, repeated two times, three technical replicates

Molecule | proportion of cells able to multiply (culture drops on YPD agar after treatment) ([1]; 2× MIC) | growth of high-density C. albicans culture ([1]; 2× MIC) | oxidation / disulfide bridge formation (in words) [2, 8] | MIC [3] | antifungal activity [6] | MIC ([7]; CBS 101355, 72 h) | further results
CC[C@H](C)[C@H](NC(=O)[C@H](CCCCN)NC(=O)[C@H](CS)NC(=O)[C@H](CCCCN)NC(=O)[C@@H](NC(=O)[C@H](CCCCN)NC(=O)[C@@H](NC(=O)[C@H](CCC(=O)O)NC(C)=O)[C@@H](C)CC)[C@@H](C)CC)C(=O)N[C@@H](CCCCN)C(=O)N[C@@H](CCCCN)C(=O)N[C@H](C(=O)N[C@@H](CCCCN)C(=O)N[C@@H](CS)C(=O)N[C@@H](CCCCN)C(N)=O)[C@@H](C)CC [NFAPimpγGZ] (Ac-EIKIKCKIKKIKCK-NH2) | highly reduce the proportion of cells able to multiply | total or high growth inhibitions | fully oxidized to the cyclic form | 12.5 μg mL^–1 | effectively inhibit the growth | 25 μg mL^–1 | growth of high-density C. albicans culture ([1]; 1× MIC): allowed the multiplication of C. albicans cells within 24 h; share of the peptide with intermolecular disulfide bridges (in words) ([2]; –20 °C sample): one-third; share of the peptide with intramolecular disulfide bridges (in words) ([2]; –20 °C sample): approximately one-third; hemolysis [4]: did not cause hemolysis; toxicity to various human cell lines [5]: impaired the viability of keratinocytes at higher concentrations
CC[C@H](C)[C@H](NC(=O)[C@H](CCCCN)NC(=O)[C@H](CSC(C)(C)C)NC(=O)[C@H](CCCCN)NC(=O)[C@@H](NC(=O)[C@H](CCCCN)NC(=O)[C@@H](NC(=O)[C@H](CCC(=O)O)NC(C)=O)[C@@H](C)CC)[C@@H](C)CC)C(=O)N[C@@H](CCCCN)C(=O)N[C@@H](CCCCN)C(=O)N[C@H](C(=O)N[C@@H](CCCCN)C(=O)N[C@@H](CSC(C)(C)C)C(=O)N[C@@H](CCCCN)C(N)=O)[C@@H](C)CC [NFAPimpγGZ^S-tBu] (Ac-EIKIKC(tBu)KIKKIKC(tBu)K-NH2) | highly reduce the proportion of cells able to multiply | – | – | 25 μg mL^–1 | – | 25 μg mL^–1 | growth of high-density C. albicans culture ([1]; 1× MIC): inhibited the growth
CC(=O)N[C@@H](CCC(=O)O)C(=O)N[C@@H](Cc1ccc(O)cc1)C(=O)N[C@@H](CCCCN)C(=O)NCC(=O)N[C@@H](CCCCN)C(=O)N[C@@H](CS)C(=O)N[C@@H](CCCCN)C(=O)N[C@H](C(=O)N[C@@H](CCCCN)C(=O)N[C@@H](CCCCN)C(=O)N[C@@H](CC(N)=O)C(=O)N[C@@H](CCCCN)C(=O)N[C@@H](CS)C(=O)N[C@@H](CCCCN)C(N)=O)[C@@H](C)O [NFAPimpγ] (Ac-EYKGKCKTKKNKCK-NH2) | highly reduce the proportion of cells able to multiply | – | total amount of the peptide was cyclized | – | effectively inhibit the growth | >200 μg mL^–1 | share of the peptide with intramolecular disulfide bridges (cyclic form) ([2]; –20 °C sample: 5 mg mL^–1 in sterile ddH2O stored at −20 °C for 7 days): approximately 60%; hemolysis [4]: did not cause hemolysis; toxicity to various human cell lines [5]: not toxic
CC(=O)N[C@@H](CCC(=O)O)C(=O)N[C@@H](Cc1ccc(O)cc1)C(=O)N[C@@H](CCCCN)C(=O)NCC(=O)N[C@@H](CCCCN)C(=O)N[C@@H](CSC(C)(C)C)C(=O)N[C@@H](CCCCN)C(=O)N[C@H](C(=O)N[C@@H](CCCCN)C(=O)N[C@@H](CCCCN)C(=O)N[C@@H](CC(N)=O)C(=O)N[C@@H](CCCCN)C(=O)N[C@@H](CSC(C)(C)C)C(=O)N[C@@H](CCCCN)C(N)=O)[C@@H](C)O [NFAPimpγ^S-tBu] (Ac-EYKGKC(tBu)KTKKNKC(tBu)K-NH2) | – | – | – | 50 μg mL^–1 | – | 25 μg mL^–1 | growth of high-density C. albicans culture ([1]; 0.5× MIC, compared with unmodified NFAPimpγ): extended the time when the C. albicans culture started to multiply intensively; proportion of cells able to multiply (culture drops on YPD agar after treatment) ([1]; 1–2× MIC): highly reduce the proportion of cells able to multiply; MIC ([7]; storage sample not specified, LCM, 72 h at 30 °C): 25 μg mL^–1
CC(=O)N[C@@H](CCC(=O)O)C(=O)N[C@@H](Cc1ccc(O)cc1)C(=O)N[C@@H](CCCCN)C(=O)NCC(=O)N[C@@H](CCC(=O)O)C(=O)N[C@@H](CS)C(=O)N[C@@H](Cc1ccccc1)C(=O)N[C@H](C(=O)N[C@@H](CCCCN)C(=O)N[C@@H](CC(=O)O)C(=O)N[C@@H](CC(N)=O)C(=O)N[C@H](C(=O)N[C@@H](CS)C(=O)N[C@@H](CCCCN)C(N)=O)[C@@H](C)O)[C@@H](C)O [NFAPγ] (Ac-EYKGECFTKDNTCK-NH2) | – | – | most of this peptide formed intramolecular, whereas a smaller part formed an intermolecular disulfide bond | > 200 μg mL^–1 | did not exhibit antifungal activity | > 200 μg mL^–1 | –
Ac-EIKIKCKIKKIKSK-NH2 [NFAPimpγGZ^C13S] | – | total or high growth inhibitions | – | 25 μg mL^–1 | – | 50 μg mL^–1 | –
Ac-EIKIKSKIKKIKSK-NH2 [NFAPimpγGZ^C6S,C13S] | – | could not inhibit the growth | – | 25 μg mL^–1 | – | 50 μg mL^–1 | –
Ac-EYKGKCKTKKNKSK-NH2 [NFAPimpγ^C13S] | – | – | – | 50 μg mL^–1 | – | >200 μg mL^–1 | growth of high-density C. albicans culture [1, 9]: could not fully inhibit the growth; share of the peptide in dimer form [2, 8]: approximately 60%
Ac-EYKGKSKTKKNKSK-NH2 [NFAPimpγ^C6S,C13S] | – | – | – | 50 μg mL^–1 | – | >200 μg mL^–1 | growth of high-density C. albicans culture [1, 9]: could not fully inhibit the growth
